The text below walks through data of patent US20180264134A1, “A COMPOSITION OF GOLD NANOPARTICLES HAVING ANTIMICROBIAL PEPTIDES BOUND ON THEIR SURFACE FOR USE THE TREATMENT OF WOUND HEALING OR IN THE TREATMENT OF ISCHEMIC OR VASCULAR DISEASES OR IN THE TREATMENT OF SKIN DISORDERS” (priority 2015, published 2018).

The test system of test [1] is platelets. Kind of test: Platelet activation (CD62P expression) in whole peripheral blood. The settings on record: positive control. Type of test: cell-based, human. On the procedure:
In an embodiment, to evaluate the hemocompatibility of Au NPs and LL37-Au NPs, the induction of platelet activation was tested. Platelet activation was measured by the flow cytometric quantification of CD62P (P-selectin) expression. CD62P is a component of the α-granule membrane of resting platelets that is expressed on the platelet surface membrane only after α-granule secretion, which occurs during platelet activation. Platelets are very sensitive to in vitro activation and aggregation, therefore, the less they are manipulated the better, for this reason the whole peripherical blood (diluted in tyrode buffer) were incubated with the NPs instead of isolating platelet rich plasma. […] As positive control it was used ADP, a platelet activator, which induced the activation of 40% of the platelets (FIG. 13). […] In contrast, HUVECs were more sensitive to soluble LL37 than HaCaT showing cytotoxic effect at a concentration of 10 μg/mL and 30 μg/mL, respectively. Furthermore, LL37-Au NPs have lower cytotoxic and impact on membrane potential than soluble peptide that for the same concentration of LL37 (up to 100 μg/mL). Differences in the cell membrane composition between HUVECs and HaCaT might account for the differences between endothelial and epithelial cells response on LL37 cytotoxicity as supported by the result of membrane potential analysis (FIG. 13d).

Test [2] deals with clathrin-mediated endocytosis. Nature of the test: FITC-labelled transferrin uptake (validation of dynasore). Type of test: cell-based, human. The settings on record: 80 μM, 30 min pre-incubation, keratinocytes. How it is done: In an embodiment the HaCaT keratinocyte cells were cultured on 24 well plates (1×10^6 cells/well) and inhibited by one of the following chemicals during 30 min before adding a suspension of Rhodamine-labelled NPs (15 μg/mL): dynasor (100 μM), cytochalasin D (100 μM), nocodazole (25 uM), filipin III (1 μM) and polyinosinic acid (100 μg/mL), 5-(N-ethyl-N-isopropyl)amiloride (EIPA), dextran sulfate. The inhibitor concentrations were based in values reported in literature and further validated by us to have no cytotoxic effect over the period of the assay (6 h), as confirmed by viability assay. The incubation of the cells with NPs for different times was performed in the presence of the inhibitor. As controls, HaCaT keratinocyte cells without NPs and cells incubated with NPs without inhibitor were used. At the end of each time point, cells were centrifuged at 1300 rpm, 20° C. for 5 min, washed 3 times with cold PBS and then resuspended in PBS containing 2.5% FBS (500 μL) for FACS analysis. A total of 10,000 events were obtained per measurement. To validate the inhibitory activity of dynasor it were performed uptake studies of FITC-labeled transferrin, known to selectively enter cells via clathrin-mediated endocytosis. […] Cells were then evaluated as before.

On to `Nc1ncnc2c1ncn2[C@@H]1O[C@H](COP(=O)(O)OP(=O)(O)O)[C@@H](O)[C@H]1O` [ADP], for which, in test [1], the activated platelets amounted to 40%. Regarding `O=C(N/N=C/c1ccc(O)c(O)c1)c1cc2ccccc2cc1O` [Dynasore, dynasore], in test [2], the “internalisation of FITC-labelled transferrin” value was “inhibits the internalisation of transferrin”.
